Measurements taken from PubChem BioAssay AID248 (DTP/NCI, 2004).
“And” between values parts separate entries of the source, which are not always exact repeats. Equal entries are not always repeated. Toxic doses and inconclusive results are not listed. Rule as the data show it: active = T/C of 150% or more; inactive = T/C below 125%.

Tested on: L1210 leukemia ip in BDF1 mice, survival T/C
Experiment: NCI In Vivo Anticancer Drug Screen. Data for tumor model L1210 Leukemia (intraperitoneal) in B6D2F1 (BDF1) mice
Conditions: endpoint: mean survival time, higher = longer survival
Outline: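 Transplanted-tumor mice were given test agent; controls received vehicle only. Survival readings from the two groups were divided (treated over control).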

[1] = dose: 100.0 mg/kg/injection, schedule: Q04DX002 (ip), vehicle: Klucel (hydroxypropylcellulose) (HPC)
[2] = dose: 200.0 mg/kg/injection, schedule: Q04DX002 (ip), vehicle: Klucel (hydroxypropylcellulose) (HPC)
[3] = dose: 400.0 mg/kg/injection, schedule: Q04DX002 (ip), vehicle: Klucel (hydroxypropylcellulose) (HPC)
[4] = dose: 100.0 mg/kg/injection, schedule: Q01DX009 (ip), vehicle: Klucel (hydroxypropylcellulose) (HPC)
[5] = dose: 200.0 mg/kg/injection, schedule: Q01DX009 (ip), vehicle: Klucel (hydroxypropylcellulose) (HPC)
[6] = dose: 400.0 mg/kg/injection, schedule: Q01DX009 (ip), vehicle: Klucel (hydroxypropylcellulose) (HPC)
[7] = dose: 100.0 mg/kg/injection, schedule: Q01DX009 (ip), vehicle: saline with Tween-80
[8] = dose: 200.0 mg/kg/injection, schedule: Q01DX009 (ip), vehicle: saline with Tween-80
[9] = dose: 100.0 mg/kg/injection, schedule: Q04DX003 (ip), vehicle: saline with Tween-80
[10] = dose: 400.0 mg/kg/injection, schedule: Q04DX003 (ip), vehicle: saline with Tween-80

Measured: T/C

CN(C)/C(N)=N/N
inactive: dose: 15.0 mg/kg/injection, schedule: Q01DX Z (ip), vehicle: methylcellulose (MC) 113 % of control | dose: 30.0 mg/kg/injection, schedule: Q01DX Z (ip), vehicle: methylcellulose (MC) 109 % of control | dose: 60.0 mg/kg/injection, schedule: Q01DX Z (ip), vehicle: methylcellulose (MC) 100 % of control | dose: 120.0 mg/kg/injection, schedule: Q01DX Z (ip), vehicle: methylcellulose (MC) 103 % of control | dose: 125.0 mg/kg/injection, schedule: Q01DX Z (oral), vehicle: methylcellulose (MC) 90 % of control | dose: 240.0 mg/kg/injection, schedule: Q01DX Z (ip), vehicle: methylcellulose (MC) 101 % of control | dose: 250.0 mg/kg/injection, schedule: Q01DX Z (oral), vehicle: methylcellulose (MC) 101 % of control | dose: 375.0 mg/kg/injection, schedule: Q01DX Z (ip), vehicle: methylcellulose (MC) 110 % of control | dose: 480.0 mg/kg/injection, schedule: Q01DX Z (ip), vehicle: methylcellulose (MC) 107 % of control

O=C(Oc1ccccc1)Oc1ccccc1
inactive: [1] 96 % of control | [2] 96 % of control | [3] 96 % of control

CC(=O)Oc1c(Br)c(-c2c(C)c(Br)c(C)c(Br)c2C)c(OC(C)=O)c(Br)c1-c1c(C)c(Br)c(C)c(Br)c1C
inactive: [4] 95 % of control | [5] 100 % of control | [6] 95 % of control

O=C1C=CC(=O)C2C3C=CC(C3)C12 (stereo not given)
inactive: dose: 25.0 mg/kg/injection, schedule: Q01DX009 (ip), vehicle: Klucel (hydroxypropylcellulose) (HPC) 102 % of control | dose: 50.0 mg/kg/injection, schedule: Q01DX009 (ip), vehicle: Klucel (hydroxypropylcellulose) (HPC) 98 % of control | [4] 94 % of control and 102 % of control

CCCCCCCCNC(=O)C1OC(n2cnc3c(N)ncnc32)C2OC(C)(C)OC12 (stereo not given)
inactive: dose: 100.0 mg/kg/injection, schedule: Q01DX005 (ip), vehicle: saline with Tween-80 94 % of control | dose: 200.0 mg/kg/injection, schedule: Q01DX005 (ip), vehicle: saline with Tween-80 102 % of control

COC(=O)C(C(=O)OC)C(c1ccccc1)C(Br)(C(=O)OC)C(=O)OC (stereo not given)
inactive: [7] 102 % of control | [8] 94 % of control

O=C(N/N=C\c1ccc(Cl)cc1)C(O)C(O)C(O)C(O)CO (stereo not given)
inactive: [4] 100 % of control | [5] 91 % of control | [6] 89 % of control

Cc1c(C)c2c(c(C)c1O)CCC(C)(CCCC(C)CCCC(C)CCCC(C)C)O2 (stereo not given)
inactive: dose: 31.2 mg/kg/injection, schedule: Q01DX009 (ip), vehicle: carboxymethylcellulose (CMC) 107 % of control | dose: 62.5 mg/kg/injection, schedule: Q01DX009 (ip), vehicle: carboxymethylcellulose (CMC) 101 % of control | [9] 91 % of control | dose: 125.0 mg/kg/injection, schedule: Q01DX009 (ip), vehicle: carboxymethylcellulose (CMC) 100 % of control | dose: 202.0 mg/kg/injection, schedule: Q04DX003 (ip), vehicle: saline with Tween-80 91 % of control | dose: 250.0 mg/kg/injection, schedule: Q01DX009 (ip), vehicle: carboxymethylcellulose (CMC) 100 % of control | [10] 93 % of control

COc1ccc(C(=O)CC(C#N)c2ccc3c(c2)OCO3)cc1OC (stereo not given)
inactive: [7] 94 % of control | [8] 94 % of control | dose: 400.0 mg/kg/injection, schedule: Q01DX009 (ip), vehicle: saline with Tween-80 96 % of control

CCN(CC)C(=O)Nc1cccc(N)c1
inactive: [1] 97 % of control | [2] 101 % of control | [3] 97 % of control

COc1cc(C)ccc1OC(=O)Nc1ccccc1
inactive: [1] 109 % of control | [2] 113 % of control | [3] 106 % of control

CC(C)=C(Br)Br
inactive: dose: 75.0 mg/kg/injection, schedule: Q01DX001 (ip), vehicle: saline 94 % of control | dose: 150.0 mg/kg/injection, schedule: Q01DX001 (ip), vehicle: saline 94 % of control | dose: 300.0 mg/kg/injection, schedule: Q01DX001 (ip), vehicle: saline 96 % of control

CCCCCC(C)C(=O)CCCC (stereo not given) (tested in a mixture with another compound)
inactive: [9] 106 % of control | dose: 200.0 mg/kg/injection, schedule: Q04DX003 (ip), vehicle: saline with Tween-80 97 % of control | [10] 86 % of control

CCCCCCCCCCCCCCOc1ccc(C(=S)N2CCOCC2)cc1OC
inactive: dose: 100.0 mg/kg/injection, schedule: Q04DX003 (ip), vehicle: Klucel (hydroxypropylcellulose) (HPC) 100 % of control | dose: 200.0 mg/kg/injection, schedule: Q04DX003 (ip), vehicle: Klucel (hydroxypropylcellulose) (HPC) 100 % of control | dose: 400.0 mg/kg/injection, schedule: Q04DX003 (ip), vehicle: Klucel (hydroxypropylcellulose) (HPC) 94 % of control

CCCCCCCCCCCCOC(=N)N1CCOCC1
inactive: dose: 11.1 mg/kg/injection, schedule: Q01DX Z (ip), vehicle: saline 102 % of control | dose: 16.6 mg/kg/injection, schedule: Q01DX Z (ip), vehicle: saline 102 % of control | dose: 25.0 mg/kg/injection, schedule: Q01DX Z (ip), vehicle: saline 98 % of control

CCCCNC(c1ccccc1)=[N+]1C(C)CCCC1C (stereo not given)
inactive: dose: 3.0 mg/kg/injection, schedule: Q04DX002 (ip), vehicle: saline 108 % of control | dose: 6.0 mg/kg/injection, schedule: Q04DX002 (ip), vehicle: saline 94 % of control | dose: 12.0 mg/kg/injection, schedule: Q04DX002 (ip), vehicle: saline 87 % of control | dose: 12.5 mg/kg/injection, schedule: Q04DX002 (ip), vehicle: saline 107 % of control

O=C(Cl)C1CCC1C(=O)Cl (stereo not given)
inactive: dose: 75.0 mg/kg/injection, schedule: Q01DX001 (ip), vehicle: carboxymethylcellulose (CMC) 102 % of control | dose: 150.0 mg/kg/injection, schedule: Q01DX001 (ip), vehicle: carboxymethylcellulose (CMC) 91 % of control

CCCC[Si](C)(C)C
inactive: dose: 100.0 mg/kg/injection, schedule: Q01DX001 (ip), vehicle: carboxymethylcellulose (CMC) 103 % of control | dose: 200.0 mg/kg/injection, schedule: Q01DX001 (ip), vehicle: carboxymethylcellulose (CMC) 95 % of control | dose: 400.0 mg/kg/injection, schedule: Q01DX001 (ip), vehicle: carboxymethylcellulose (CMC) 103 % of control

Cc1cccc(NC(=O)C(Br)C(Br)c2ccccc2)c1C (stereo not given)
inactive: [4] 94 % of control | [5] 105 % of control | [6] 105 % of control
